Assay results: US8933103B2, “Pyridone derivatives” (Daiichi Sankyo Company, Limited, priority 2012, dated 2015)

Molecular target: T1, AXL (fusion protein of amino acids 464-885 of the intracellular domain of human AXL with glutathione transferase) (Homo sapiens, UniProt P30530)
T1 sequence (P30530 464-885 isoform P30530-2): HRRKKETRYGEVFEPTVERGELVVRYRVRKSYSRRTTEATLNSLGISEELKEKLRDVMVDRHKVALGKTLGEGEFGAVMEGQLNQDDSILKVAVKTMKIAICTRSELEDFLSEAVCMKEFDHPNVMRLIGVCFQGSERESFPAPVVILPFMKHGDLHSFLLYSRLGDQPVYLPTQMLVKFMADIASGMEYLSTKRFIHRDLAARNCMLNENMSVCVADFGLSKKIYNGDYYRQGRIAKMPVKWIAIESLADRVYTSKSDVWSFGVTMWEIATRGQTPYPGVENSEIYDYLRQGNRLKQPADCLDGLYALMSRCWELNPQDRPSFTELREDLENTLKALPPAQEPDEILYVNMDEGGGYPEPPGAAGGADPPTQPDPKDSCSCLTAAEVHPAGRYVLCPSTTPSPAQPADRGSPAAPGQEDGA
Experiment: Cell-Free Axl Kinase Inhibitory Activity

| Compound | IC50 [nM] |
| --- | --- |
| Cc1cc(-c2cnc(N)c(-c3ccc(NC(=O)c4cn(CC(F)(F)F)cc(-c5ccc(F)cc5)c4=O)cc3)c2)ccn1 [Example 77, N-[4-(6-Amino-2′-methyl-3,4′-bipyridin-5-yl)phenyl]-5-(4-fluorophenyl)-4-oxo-1-(2,2,2-trifluoroethyl)-1,4-dihydropyridine-3-carboxamide] | 0.1 to 1 |
| CC(=O)N1CC=C(c2cnc(N)c(-c3ccc(NC(=O)c4cn(CC(F)(F)F)cc(-c5ccc(F)cc5)c4=O)cc3)c2)CC1 [Example 80, N-[4-(1′-Acetyl-6-amino-1′,2′,3′,6′-tetrahydro-3,4′-bipyridin-5-yl)phenyl]-5-(4-fluorophenyl)-4-oxo-1-(2,2,2-trifluoroethyl)-1,4-dihydropyridine-3-carboxamide] | 0.1 to 1 |
| COc1ccnc(N)c1-c1ccc(NC(=O)c2cn(CC(F)(F)F)cc(-c3ccc(F)cc3)c2=O)cc1F [Example 85, N-[4-(2-Amino-4-methoxypyridin-3-yl)-3-fluorophenyl]-5-(4-fluorophenyl)-4-oxo-1-(2,2,2-trifluoroethyl)-1,4-dihydropyridine-3-carboxamide] | 0.1 to 1 |
| COc1ncnc(N)c1-c1ccc(NC(=O)c2cn(CC(F)(F)F)cc(-c3ccc(F)cc3)c2=O)cc1 [Example 86, N-[4-(4-Amino-6-methoxypyrimidin-5-yl)phenyl]-5-(4-fluorophenyl)-4-oxo-1-(2,2,2-trifluoroethyl)-1,4-dihydropyridine-3-carboxamide] | 1 to 10 |
| COc1ccc(-c2cnc(N)c(-c3ccc(NC(=O)c4cn(CC(F)(F)F)cc(-c5ccc(F)cc5)c4=O)cn3)c2)cc1OC [Example 87, N-[2′-Amino-5′-(3,4-dimethoxyphenyl)-2,3′-bipyridin-5-yl]-5-(4-fluorophenyl)-4-oxo-1-(2,2,2-trifluoroethyl)-1,4-dihydropyridine-3-carboxamide] | 1 to 10 |
| COc1ccc(-c2cnc(N)c(-c3ccc(NC(=O)c4cn(CC(F)(F)F)cc(-c5ccc(F)cc5)c4=O)cc3)c2)cc1O [Example 88, N-{4-[2-Amino-5-(3-hydroxy-4-methoxyphenyl)pyridin-3-yl]phenyl}-5-(4-fluorophenyl)-4-oxo-1-(2,2,2-trifluoroethyl)-1,4-dihydropyridine-3-carboxamide] | 1 to 10 |

Now from value to compound:

| IC50 [nM] | Compound |
| --- | --- |
| 1 to 10 | Cc1cc(-c2cnc(N)c(-c3ccc(NC(=O)c4cn(CCF)cc(-c5ccc(F)cc5)c4=O)cc3)c2)ccn1 [Example 78, N-[4-(6-Amino-2′-methyl-3,4′-bipyridin-5-yl)phenyl]-1-(2-fluoroethyl)-5-(4-fluorophenyl)-4-oxo-1,4-dihydropyridine-3-carboxamide] |
| 1 to 10 | COc1ccnc(N)c1-c1ccc(NC(=O)c2cn(CC(F)(F)F)cc(-c3ccc(F)cc3)c2=O)cc1 [Example 82, N-[4-(2-Amino-4-methoxypyridin-3-yl)phenyl]-5-(4-fluorophenyl)-4-oxo-1-(2,2,2-trifluoroethyl)-1,4-dihydropyridine-3-carboxamide] |
| 10 to 20 | COc1ccnc(N)c1-c1ccc(NC(=O)c2cn(CCF)cc(-c3ccc(F)cc3)c2=O)cc1 [Example 83, N-[4-(2-Amino-4-methoxypyridin-3-yl)phenyl]-1-(2-fluoroethyl)-5-(4-fluorophenyl)-4-oxo-1,4-dihydropyridine-3-carboxamide] |
